Measured values reported in patent publication US10532988B2, “Crystalline forms of neurotrophin mimetic compounds and their salts” (PharmatrophiX, Inc., priority 2009, dated 2020).
Counter-ions that a name gives are not always drawn. Like-named read-outs stand apart in the source and are kept apart here.

How the values were obtained:
[1] = Hygroscopicity - dynamic vapor sorption (DVS); format: physicochemical; conditions: for mass greater than the original value at 0% RH after desorption: DVS desorption phase, end at 0% RH; for RH up to which the sample did not adsorb much moisture (rapid sorption above): DVS sorption phase from 0% RH; for moisture sorption at 95% RH / moisture sorption at 90% RH: 25° C.
Experimental: Hygroscopicity—Dynamic Vapor Sorption (DVS):
Samples were analyzed using an automated dynamic vapor sorption analyzer. The sample (about 1-10 mg) was dried in the instrument 0% RH for 6 hours.

[2] = Stability study of salts and free base under stress, HPLC total area normalization; format: physicochemical
Experimental: The scaled up salts and free base were challenged by heat (solids stored at 25 and 60° C. for 1 week), oxidation (solids stored in oxygen headspace at 25° C. for 1 week), light (solids exposed to ≥1×ICH UV confirmatory conditions), and solutions (HPLC diluent) at 25 and 40° C. for 1 week. These samples were analyzed, along with unstressed controls, by HPLC to characterize their stability.
Crystalline forms (i.e., salts and free base) of the present invention were analyzed by total area normalization (TAN). The samples were dissolved in 1:1 Acetonitrile (ACN):Water (H2O) at a concentration of 0.5 mg/mL.
Stressed samples were analyzed using HPLC to determine their impurity profiles.
The stability results shown in Table 10 represent the averages of two injections of duplicate sample preparations.

[3] = Pharmacokinetic study of salt forms in rat plasma and brain after oral gavage; format: in vivo; conditions: for AUC%Extrap / AUCINF / AUCall / Cmax / T1/2 / Tmax / Brain:Plasma Ratio / Maximum Brain Level / Kp at 8 h / AUC / AUC(0-inf) / half-life: male rats, single 25 mg/kg free base by oral gavage; for Brain:Plasma Ratio / Maximum Brain Level / Kp at 8 h: brain at 1, 3 and 8 hours; for Kp at 8 h: brain and plasma, read-out: Brain:Plasma Ratio
Experimental: The objective of this study was to provide preliminary pharmacokinetic information regarding the exposure of different salt forms of LM11A-31 in rat plasma and brain when dosed by oral gavage. Groups consisting of nine male rats received single doses of 25 mg/kg free base by oral gavage. Plasma samples were obtained from three rats per timepoint after administration (0.5, 1, 2, 3, 4, and 8 hours) and brain samples were collected at 1-, 3-, and 8-hour terminations (three rats per time point).
The samples were analyzed by LC-MS/MS to determine the plasma and brain concentrations of the test article. Pharmacokinetic analysis of the plasma concentration data was conducted using noncompartmental analysis with WinNonlin Version 4.1.

[4] = Solubility in water (incremental solvent addition, visual observation); conditions: for solubility: thermodynamic from solid
Experimental: Milligram size quantities of each sample were placed into a vial. Water was added and the vials were stirred for a few minutes, followed by visual observation for remaining solids. The solvent was incrementally added until the solids were dissolved, or a maximum volume of solvent was added and the experiment was terminated.

[5] = Stability study, qualitative proton NMR of stressed samples; format: physicochemical; conditions: heat stress (solids stored at 60° C.)
Experimental: To confirm the little or no degradation observed in the HPLC stability study, some samples (solids stored at 60° C. and oxidation) of four of the salts and free base were further analyzed by proton NMR (i.e., HNMR). The analysis was qualitative.

[6] = Oxidation Ambient (oxygen headspace, 25° C., 1 week)
[7] = Photo Stability - Exposed (UV, ICH confirmatory conditions)
[8] = Solution (water and acetonitrile 1:1) - 40 C., 1 week
[9] = Solution (water and acetonitrile 1:1) - Ambient, 1 week

Compound | mass greater than the original value at 0% RH after desorption [1] | RH up to which the sample did not adsorb much moisture (rapid sorption above) [1] | moisture sorption at 95% RH ([1]; DVS sorption phase) | HPLC Total Area Normalization - Area % Purity [2, 6] | HPLC Total Area Normalization - Area % Purity ([2]; Photo Stability - Dark Control) | HPLC Total Area Normalization - Area % Purity [2, 7] | HPLC Total Area Normalization - Area % Purity ([2]; Solid State - Ambient, 1 week) | HPLC Total Area Normalization - Area % Purity [2, 8] | AUC%Extrap ([3]; plasma) | Maximum Brain Level [3] | solubility [4] | overall hygroscopicity (in words) ([1]; DVS) | HPLC Total Area Normalization - Area % Purity ([2]; Solid State - 60 C., 1 week) | HPLC Total Area Normalization - Area % Purity [2, 9] | AUCINF ([3]; plasma) | AUCall ([3]; plasma) | Cmax ([3]; plasma) | T1/2 ([3]; plasma) | Tmax ([3]; plasma) | other results
2-amino-3-methyl-N-(2-morpholinoethyl)-pentanamide Digluconate | about 4 wt % | 45 % RH | 110 wt % |  |  |  |  |  |  |  |  |  |  |  |  |  |  |  |  | 
2-amino-3-methyl-N-(2-morpholinoethyl)-pentanamide Disulfate | about 4 wt % | 60 % RH | 140 wt % | 99.97 Area % | 99.97 Area % | 99.94 Area % | 99.98 Area % | 99.75 Area % | 5.26% | 77 ng/g tissue |  |  | 99.98 Area % | 99.90 Area % | 410 ng·h/mL | 416 ng·h/mL | 413 ng/mL | 66 min | 30 min | Brain:Plasma Ratio [3]: 0.6-1.8; overall PK properties compared with the free base ([3]; rat, oral gavage): better PK properties than the free base; exposure (AUC and Cmax) compared with the free base ([3]; rat, oral gavage, plasma): higher exposure; solubility in water ([4]; ambient temperature): > 3
2-amino-3-methyl-N-(2-morpholinoethyl)-pentanamide Monoedisylate |  | 80 % RH |  | 99.95 Area % | 99.97 Area % | 99.86 Area % | 99.79 Area % | 99.90 Area % | 1.52% | 98 ng/g tissue |  |  | 99.95 Area % | 999.81 Area % | 243 ng·h/mL | 247 ng·h/mL | 284 ng/mL | 42.5 min | 30 min | moisture sorption at 90% RH ([1]; DVS sorption phase): 85 wt %; Brain:Plasma Ratio [3]: 1.4-3.3; crude solubility in water [4]: ≤ 14 mg/mL
CCC(C)C(N)C(=O)NCCN1CCOCC1.CS(=O)(=O)O.CS(=O)(=O)O (centres unmarked) [Dimesylate, 2-amino-3-methyl-N-(2-morpholinoethyl)-pentanamide Dimesylate] | about 3 wt % | 55 % RH | 110 wt % |  |  |  |  |  |  |  | ≥ 28 mg/mL |  |  |  |  |  |  |  |  | 
CCC(C)C(N)C(=O)NCCN1CCOCC1.O=S(=O)(O)c1ccc2ccccc2c1.O=S(=O)(O)c1ccc2ccccc2c1 (centres unmarked) [Dinapsylate, 2-amino-3-methyl-N-(2-morpholinoethyl)-pentanamide Dinapsylate] |  | about 80 % RH |  | 99.81 Area % | 99.85 Area % | 99.82 Area % | 99.90 Area % | 99.96 Area % | 3.44% | 123 ng/g tissue |  | did not appear deliquescent | 99.87 Area % | 99.87 Area % | 280 ng·h/mL | 270 ng·h/mL | 335 ng/mL | 114 min | 30 min | water taken up at high humidity ([1]; DVS, high humidity, no equilibrium at the highest humidity): 3 to 4 wt %; overall PK properties compared with the free base ([3]; rat, oral gavage): better PK properties than the free base; terminal plasma half-life compared with the free base ([3]; rat, oral gavage, plasma): longer terminal plasma half-life
CCC(C)C(N)C(=O)NCCN1CCOCC1.Cc1ccc(S(=O)(=O)O)cc1.Cc1ccc(S(=O)(=O)O)cc1 (centres unmarked) [Ditosylate, 2-amino-3-methyl-N-(2-morpholinoethyl)-pentanamide Ditosylate] |  | 80 % RH |  | 99.92 Area % | 99.94 Area % | 99.93 Area % | 99.82 Area % | 99.91 Area % | 1.45% | 120 ng/g tissue | 0.5 to 0.7 mg/mL |  | 99.94 Area % | 99.89 Area % |  |  |  |  |  | moisture sorption at 90% RH ([1]; DVS sorption phase): 30 wt %; Kp at 8 h ([3]; rat): 1 to 5.7; AUC ([3]; rat, plasma): 295 ng·h/mL; AUC(0-inf) ([3]; rat, plasma): 290 ng·h/mL; half-life ([3]; rat, plasma): 37.8 min; Cmax ([3]; rat, plasma, read-out: Cmax): 296 ng/mL; Tmax ([3]; rat, plasma, read-out: Tmax): 30 min

Continued, in another order:

mass greater than the original value at 0% RH after desorption [1] | RH up to which the sample did not adsorb much moisture (rapid sorption above) [1] | moisture sorption at 95% RH ([1]; DVS sorption phase) | HPLC Total Area Normalization - Area % Purity [2, 6] | HPLC Total Area Normalization - Area % Purity ([2]; Photo Stability - Dark Control) | HPLC Total Area Normalization - Area % Purity [2, 7] | HPLC Total Area Normalization - Area % Purity ([2]; Solid State - Ambient, 1 week) | HPLC Total Area Normalization - Area % Purity [2, 8] | AUC%Extrap ([3]; plasma) | Maximum Brain Level [3] | solubility [4] | overall hygroscopicity (in words) ([1]; DVS) | Compound | HPLC Total Area Normalization - Area % Purity ([2]; Solid State - 60 C., 1 week) | HPLC Total Area Normalization - Area % Purity [2, 9] | AUCINF ([3]; plasma) | AUCall ([3]; plasma) | Cmax ([3]; plasma) | T1/2 ([3]; plasma) | Tmax ([3]; plasma) | other results
original weight | 45 % RH | 96 wt % | 99.97 Area % | 99.97 Area % | 99.98 Area % | 100 Area % | 99.89 Area % | 4.81% | 105 ng/g tissue | > 30 mg/mL |  | CC[C@H](C)[C@H](N)C(=O)NCCN1CCOCC1 (stereo in doubt) [Free base, 2-amino-3-methyl-N-(2-morpholinoethyl)-pentanamide] |  |  |  |  |  |  |  | moisture adsorbed from 45% to 50% RH ([1]; DVS sorption phase, 45% to 50% RH): ~10 wt %; degradation after heat stress by proton NMR [5]: slight degradation; Kp at 8 h ([3]; rat): 2 to 3.5; AUC ([3]; rat, plasma): 321 ng·h/mL; AUC(0-inf) ([3]; rat, plasma): 316 ng·h/mL; half-life ([3]; rat, plasma): 63 min; Cmax ([3]; rat, plasma, read-out: Cmax): 371 ng/mL; Tmax ([3]; rat, plasma, read-out: Tmax): 30 min
 | 50 % RH | 1.5 wt % |  |  |  |  |  |  |  |  | did not take up much water | CCC(C)C(N)C(=O)NCCN1CCOCC1.O=C(O)C(=O)O (centres unmarked) [Monooxalate, 2-amino-3-methyl-N-(2-morpholinoethyl)-pentanamide Monooxalate] |  |  |  |  |  |  |  | 
about 5 wt % | 20 % RH | 140 wt % |  |  |  |  |  |  |  | > 30 mg/mL | quite hygroscopic | CCC(C)C(N)C(=O)NCCN1CCOCC1 (centres unmarked) [di-HCl salt, 2-amino-3-methyl-N-(2-morpholinoethyl)-pentanamide] |  |  |  |  |  |  |  | 
